Results taken from patent publication US20240327351A1, “AMIDE AND ETHER SUBSTITUTED N-(1H-INDOL-7-YL)BENZENESULFONAMIDES AND USES THEREOF” (TRIANA BIOMEDICINES, INC., priority 2021, published 2024).

Key:
[1] = target: DCAF15/RBM39 (Homo sapiens, UniProt Q14498+Q66K64); assay: AlphaLISA compound-induced DCAF15-RBM39 ternary complex formation; type: binding; details: His-tagged DCAF15 complex and biotin-carrying RBM39
Outline: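 Compounds, serially diluted 3-fold from 2 mM DMSO stocks, were incubated 1 h at room temperature with His-tagged DCAF15 complex and biotinylated RBM39 (mixture at 408 nM each, 2.04×). The buffer was 50 mM HEPES pH 7.5, 100 mM NaCl, 2 mM MgCl2, 2 mM TCEP. Ni-chelate acceptor and streptavidin donor beads were added sequentially (1–2 h each), and the AlphaLISA signal was titrated.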

[2] = target: T1, RBM39 (Homo sapiens, UniProt Q14498+Q66K64); assay: Western blot assay for degradation of RBM39 in HCT116 cells; type: cell-based; details: HCT-116, numeric values
T1 construct: endogenous in cells; host or cells: HCT116
T1 sequence (Q66K64 whole entry): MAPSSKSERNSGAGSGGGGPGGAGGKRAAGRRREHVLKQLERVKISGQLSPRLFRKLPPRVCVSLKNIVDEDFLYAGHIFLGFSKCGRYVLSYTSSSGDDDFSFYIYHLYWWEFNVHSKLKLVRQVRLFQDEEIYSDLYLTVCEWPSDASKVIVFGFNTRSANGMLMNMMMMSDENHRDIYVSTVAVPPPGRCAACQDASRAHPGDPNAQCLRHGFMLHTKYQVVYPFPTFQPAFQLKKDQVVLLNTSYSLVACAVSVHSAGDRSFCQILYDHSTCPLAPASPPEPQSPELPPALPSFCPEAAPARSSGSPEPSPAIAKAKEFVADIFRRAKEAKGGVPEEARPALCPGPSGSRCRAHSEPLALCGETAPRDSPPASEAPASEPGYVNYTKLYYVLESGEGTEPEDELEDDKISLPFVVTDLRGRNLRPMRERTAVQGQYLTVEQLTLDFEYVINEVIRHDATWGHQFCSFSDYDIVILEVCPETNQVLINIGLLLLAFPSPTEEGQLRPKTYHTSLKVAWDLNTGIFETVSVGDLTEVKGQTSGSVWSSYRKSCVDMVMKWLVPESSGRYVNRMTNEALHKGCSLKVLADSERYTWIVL
T1 sequence (Q14498 2-530): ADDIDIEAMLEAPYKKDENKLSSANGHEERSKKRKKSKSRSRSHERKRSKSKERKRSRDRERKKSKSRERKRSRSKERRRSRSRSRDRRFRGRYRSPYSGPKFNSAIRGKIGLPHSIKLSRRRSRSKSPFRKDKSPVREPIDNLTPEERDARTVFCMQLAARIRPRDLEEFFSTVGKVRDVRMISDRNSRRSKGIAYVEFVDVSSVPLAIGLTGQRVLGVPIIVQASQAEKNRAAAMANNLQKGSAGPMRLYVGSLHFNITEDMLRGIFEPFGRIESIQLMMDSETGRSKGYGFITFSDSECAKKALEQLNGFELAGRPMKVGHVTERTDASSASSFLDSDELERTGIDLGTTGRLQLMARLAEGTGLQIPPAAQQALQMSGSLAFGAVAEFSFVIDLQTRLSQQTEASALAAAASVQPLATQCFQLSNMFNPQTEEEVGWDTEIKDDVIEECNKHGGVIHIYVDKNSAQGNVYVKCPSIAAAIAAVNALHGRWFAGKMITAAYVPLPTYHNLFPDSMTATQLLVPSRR
T1 sequence (Q16531 whole entry, further chain): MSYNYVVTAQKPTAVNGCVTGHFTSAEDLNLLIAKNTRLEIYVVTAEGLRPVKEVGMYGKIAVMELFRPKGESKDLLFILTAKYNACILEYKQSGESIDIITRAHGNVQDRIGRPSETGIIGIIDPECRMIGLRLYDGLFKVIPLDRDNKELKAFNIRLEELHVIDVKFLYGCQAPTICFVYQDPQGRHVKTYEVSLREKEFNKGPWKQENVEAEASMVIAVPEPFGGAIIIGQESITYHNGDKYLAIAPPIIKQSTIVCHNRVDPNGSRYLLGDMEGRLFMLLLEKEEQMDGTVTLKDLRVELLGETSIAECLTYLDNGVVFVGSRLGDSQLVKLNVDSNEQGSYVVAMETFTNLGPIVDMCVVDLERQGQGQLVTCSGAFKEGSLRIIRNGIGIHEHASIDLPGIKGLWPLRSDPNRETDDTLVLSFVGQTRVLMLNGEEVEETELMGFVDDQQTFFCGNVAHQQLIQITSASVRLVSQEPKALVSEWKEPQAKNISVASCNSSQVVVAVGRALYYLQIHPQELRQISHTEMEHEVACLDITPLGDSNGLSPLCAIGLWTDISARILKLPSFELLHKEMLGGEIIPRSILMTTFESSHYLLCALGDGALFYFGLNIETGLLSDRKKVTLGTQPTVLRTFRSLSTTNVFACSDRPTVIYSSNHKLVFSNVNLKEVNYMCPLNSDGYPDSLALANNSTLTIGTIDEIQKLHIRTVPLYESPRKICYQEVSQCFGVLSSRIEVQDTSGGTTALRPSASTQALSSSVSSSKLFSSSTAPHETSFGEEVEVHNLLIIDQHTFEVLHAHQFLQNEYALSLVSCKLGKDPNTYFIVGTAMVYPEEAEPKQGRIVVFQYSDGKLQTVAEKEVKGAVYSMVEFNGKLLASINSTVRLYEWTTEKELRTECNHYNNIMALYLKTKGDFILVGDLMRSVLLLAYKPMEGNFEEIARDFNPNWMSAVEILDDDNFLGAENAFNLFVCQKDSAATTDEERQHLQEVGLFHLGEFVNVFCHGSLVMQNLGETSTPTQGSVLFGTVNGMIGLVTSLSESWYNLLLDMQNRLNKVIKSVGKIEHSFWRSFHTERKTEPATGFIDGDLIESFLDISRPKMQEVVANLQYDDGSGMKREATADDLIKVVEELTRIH
Description: HCT116 cells were used with passage numbers ranging from 13 to 25. Cells were seeded in 12-well plated at a density of 1 million cells per well in 1 mL cell culture medium containing McCoy's 5A medium (Cat. #16600082, ThermoFisher, Waltham, MA), 10% Fetal Bovine Serum (Cat. #26140, ThermoFisher, Waltham, MA) and 1% Pen-Strep (Cat. #. 15070063, ThermoFisher, Waltham, MA) and incubated overnight. The next morning, compounds were serially diluted (1:3, 9 points) in the medium separately and were prepared 2× the final assay concentration. Subsequently, 1.0 mL medium containing DMSO or the appropriate concentration of each compound was added to respective wells. The final DMSO concentration in each well was 0.1%. After 24 hour incubation with compounds, cell were harvested (approximately 90-100% confluency at the time of harvest). […] Lysates were then sonicated in a sonication bath (3 pulses of 10 sec each with 1 min incubation on ice between each pulse). Samples were then centrifuged for 20 min at 14,000 rpm for 20 min. Supernatants were then transferred to fresh microfuge tubes and stored frozen at −80° C. until use. Total protein quantitation in lysate samples was done using the BCA protein quantitation kit following the manufacturer's instructions. For polyacrylamide gel electrophoresis, each sample (15-30 […]), was diluted with Laemmli sample buffer (Cat. #. 1610747, BioRad, Hercules, CA) by adding 9 ul of lysate to 3 ul of sample buffer containing 10% β-mercaptoethanol. Samples were then denatured at 95° C. for 5 minutes in a heat block, centrifuged at 14,000 rpm for 5 min, and placed on ice. Subsequently, 12 ul of each sample was loaded on 4-20% Tris/Glycine gels and electrophoresed in 1×Tris/Glycine SDS buffer at 80 (constant) volts for 2 h. Resolved samples were then transferred from gels to PVDF membrane using the BioRad Turbo-transfer unit with the Turbo default program (Cat. #. 1704150EDU, BioRad, Hercules, CA). For immunoblotting, membranes were first blocked for 1 hour at room temperature using Odyssey Blocking Buffer (Cat. #: 927-60001, Li-cor, Lincoln, NE) with continuous rocking. Membrane was then incubated with primary antibodies, anti-RBM39 (Sigma Cat. #: HPA001591, St. Louis, MO) and anti-β-actin (Cell Signaling Cat. #3700S, Danvers, MA), diluted 1000 fold each, at 4° C. for overnight. […] Band intensity in images was quantified using the Image Studio Lite software (Version 5.2). Signal intensity for RBM-39 specific bands were normalized using the signal intensity for β-actin-specific band, and percent degradation was assessed by comparing RBM39 signal in compound-treated vs. DMSO-treated samples.

[3] = target: DCAF15 (Homo sapiens, UniProt Q66K64); assay: HTRF competition assay, binary interaction between compounds and DCAF15; type: binding; details: competition with Alexa Fluor 647 tracer, His-tagged DCAF15 complex
Outline: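 Compounds, 3-fold serially diluted in DMSO, competed with an Alexa Fluor 647 tracer (612 nM, 2.04× stock) for His-tagged DCAF15 complex (32 nM, 4× stock) premixed 15 min with anti-6His-Eu cryptate. Buffer was 25 mM HEPES pH 7.5, 100 mM NaCl, 0.5 mM TCEP. After 1 h at RT, the 615/666 nm ratio gave titration curves.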

| Structure (SMILES) | EC50 [1] | Dmax [2] | IC50 [3] |
| --- | --- | --- | --- |
| O=C(COc1ccc(S(=O)(=O)Nc2ccc(Cl)c3c(Cl)c[nH]c23)cc1)NC1CC1 [Compound 39] | < 1000 nM | 97.6% | > 100000 nM |
| CCS(=O)(=O)CCOc1ccc(S(=O)(=O)Nc2ccc(Cl)c3c(Cl)c[nH]c23)cc1 [Compound 71] | 1000 to 10000 nM | 100% | 1000 to 10000 nM |
| O=C(NC1CC1)c1ccc(S(=O)(=O)Nc2ccc(Cl)c3c(Cl)c[nH]c23)cc1 [Compound 153] | < 1000 nM | 94.8% | 1000 to 10000 nM |
| CC(C)C[C@H](NC(=O)c1ccc(S(=O)(=O)Nc2ccc(Cl)c3c(Cl)c[nH]c23)c(F)c1)c1nc2ccccc2[nH]1 [Compound 212] | 1000 to 10000 nM | – | 1000 to 10000 nM |
| CC(C)C[C@H](NC(=O)c1cccc(S(=O)(=O)Nc2ccc(Cl)c3c(Cl)c[nH]c23)c1F)c1nc2ccccc2[nH]1 [Compound 213] | < 1000 nM | – | 1000 to 10000 nM |
| O=C(c1cccc(S(=O)(=O)Nc2ccc(Cl)c3c(Cl)c[nH]c23)c1F)N1CC(N2CCc3ccccc32)C1 [Compound 214] | 1000 to 10000 nM | – | 1000 to 10000 nM |
| O=C(c1ccc(S(=O)(=O)Nc2ccc(Cl)c3c(Cl)c[nH]c23)c(F)c1)N1CC(N2CCc3ccccc32)C1 [Compound 215] | 1000 to 10000 nM | – | 10000 to 100000 nM |
| O=C(c1cccc(S(=O)(=O)Nc2ccc(Cl)c3c(Cl)c[nH]c23)c1F)N1CC[C@H](n2ccnn2)C1 [Compound 216] | < 1000 nM | – | < 1000 nM |
| O=C(c1ccc(S(=O)(=O)Nc2ccc(Cl)c3c(Cl)c[nH]c23)c(F)c1)N1CC[C@H](n2ccnn2)C1 [Compound 217] | < 1000 nM | – | < 1000 nM |
| O=C(c1cccc(S(=O)(=O)Nc2ccc(Cl)c3c(Cl)c[nH]c23)c1)N1CCOCC1 [Compound 218] | < 1000 nM | 100% | 1000 to 10000 nM |
| O=C(c1cccc(S(=O)(=O)Nc2ccc(Cl)c3c(Cl)c[nH]c23)c1F)N1CCC(Oc2cccnc2)CC1 [Compound 219] | < 1000 nM | – | < 1000 nM |
| O=C(c1ccc(S(=O)(=O)Nc2ccc(Cl)c3c(Cl)c[nH]c23)c(F)c1)N1CCC(Oc2cccnc2)CC1 [Compound 220] | < 1000 nM | – | 1000 to 10000 nM |
| O=C(c1cccc(S(=O)(=O)Nc2ccc(Cl)c3c(Cl)c[nH]c23)c1F)N1CCC(c2ccnc(C(F)F)c2)CC1 [Compound 221] | < 1000 nM | – | < 1000 nM |
| O=C(c1ccc(S(=O)(=O)Nc2ccc(Cl)c3c(Cl)c[nH]c23)c(F)c1)N1CCC(c2ccnc(C(F)F)c2)CC1 [Compound 222] | > 100000 nM | – | > 100000 nM |
| CN1CCN(C(=O)c2ccc(S(=O)(=O)Nc3ccc(Cl)c4c(Cl)c[nH]c34)cc2)CC1 [Compound 223] | < 1000 nM | – | 1000 to 10000 nM |
| CC(C)(C)OC(=O)N1CCC2(CC1)CN(C(=O)c1cccc(S(=O)(=O)Nc3ccc(Cl)c4c(Cl)c[nH]c34)c1F)CCO2 [Compound 224] | < 1000 nM | – | 1000 to 10000 nM |
| CC(C)(C)OC(=O)N1CCC2(CC1)CN(C(=O)c1ccc(S(=O)(=O)Nc3ccc(Cl)c4c(Cl)c[nH]c34)c(F)c1)CCO2 [Compound 225] | 1000 to 10000 nM | – | 1000 to 10000 nM |

The remaining lines, values ahead:

| EC50 [1] | Dmax [2] | IC50 [3] | Structure (SMILES) |
| --- | --- | --- | --- |
| < 1000 nM | – | 1000 to 10000 nM | O=C(c1cccc(S(=O)(=O)Nc2ccc(Cl)c3c(Cl)c[nH]c23)c1F)N1CCc2[nH]c(-c3ccccc3)nc2C1 [Compound 226] |
| 1000 to 10000 nM | – | 1000 to 10000 nM | O=C(c1ccc(S(=O)(=O)Nc2ccc(Cl)c3c(Cl)c[nH]c23)c(F)c1)N1CCc2[nH]c(-c3ccccc3)nc2C1 [Compound 227] |
| < 1000 nM | – | < 1000 nM | Cc1nc2c(n1C)CCN(C(=O)c1cccc(S(=O)(=O)Nc3ccc(Cl)c4c(Cl)c[nH]c34)c1F)C2 [Compound 228] |
| < 1000 nM | – | < 1000 nM | Cc1nc2c(n1C)CCN(C(=O)c1ccc(S(=O)(=O)Nc3ccc(Cl)c4c(Cl)c[nH]c34)c(F)c1)C2 [Compound 229] |
| 1000 to 10000 nM | – | 1000 to 10000 nM | CC(C)CCOc1ccc(S(=O)(=O)Nc2ccc(Cl)c3c(Cl)c[nH]c23)cc1 [Compound 230] |
| 1000 to 10000 nM | – | 1000 to 10000 nM | COCCOc1ccc(S(=O)(=O)Nc2ccc(Cl)c3c(Cl)c[nH]c23)cc1Br [Compound 231] |
| 1000 to 10000 nM | – | > 100000 nM | CCOCCOc1ccc(S(=O)(=O)Nc2ccc(Cl)c3c(Cl)c[nH]c23)cc1C(C)C [Compound 232] |
| 10000 to 100000 nM | – | 10000 to 100000 nM | CC(C)c1cc(S(=O)(=O)Nc2ccc(Cl)c3c(Cl)c[nH]c23)ccc1OCc1ccccc1 [Compound 233] |
| 1000 to 10000 nM | – | > 100000 nM | O=S(=O)(Nc1ccc(Cl)c2c(Cl)c[nH]c12)c1ccc(Oc2ccc(F)cc2)c(Br)c1 [Compound 234] |
| 1000 to 10000 nM | – | 1000 to 10000 nM | NC(=O)c1cc(Cl)cc(S(=O)(=O)Nc2ccc(Cl)c3c(Cl)c[nH]c23)c1 [Compound 235] |
| < 1000 nM | – | 1000 to 10000 nM | CNC(=O)c1cccc(S(=O)(=O)Nc2ccc(Cl)c3c(Cl)c[nH]c23)c1F [Compound 236] |
| 1000 to 10000 nM | – | 10000 to 100000 nM | CNC(=O)c1ccc(F)c(S(=O)(=O)Nc2ccc(Cl)c3c(Cl)c[nH]c23)c1 [Compound 237] |
| 1000 to 10000 nM | – | 1000 to 10000 nM | CN(C)C(=O)c1cccc(S(=O)(=O)Nc2ccc(Cl)c3c(Cl)c[nH]c23)c1 [Compound 238] |
| < 1000 nM | – | > 100000 nM | CC(C)CNC(=O)c1ccc(S(=O)(=O)Nc2ccc(Cl)c3c(Cl)c[nH]c23)cc1 [Compound 239] |
| < 1000 nM | – | 1000 to 10000 nM | CC(C)CNC(=O)c1ccc(S(=O)(=O)Nc2ccc(Cl)c3c(Cl)c[nH]c23)c(F)c1 [Compound 240] |
